Measured values taken from ChEMBL document CHEMBL1135384, “Convenient synthesis and evaluation of enzyme inhibitory activity of several N-alkyl-, N-phenylalkyl, and cyclic isourea derivatives of 5a-carba-alpha-DL-fucopyranosylamine” (Bioorg Med Chem Lett, 2002).
pIC50: −log10 of the molar value.

Columns and labels:
[1] = target: T1, Beta-galactosidase (Bos taurus, UniProt Q58D55); assay: Inhibitory activity against Beta-galactosidase in bovine liver was determined;NI means no inhibition
T1 sequence (Q58D55 whole entry): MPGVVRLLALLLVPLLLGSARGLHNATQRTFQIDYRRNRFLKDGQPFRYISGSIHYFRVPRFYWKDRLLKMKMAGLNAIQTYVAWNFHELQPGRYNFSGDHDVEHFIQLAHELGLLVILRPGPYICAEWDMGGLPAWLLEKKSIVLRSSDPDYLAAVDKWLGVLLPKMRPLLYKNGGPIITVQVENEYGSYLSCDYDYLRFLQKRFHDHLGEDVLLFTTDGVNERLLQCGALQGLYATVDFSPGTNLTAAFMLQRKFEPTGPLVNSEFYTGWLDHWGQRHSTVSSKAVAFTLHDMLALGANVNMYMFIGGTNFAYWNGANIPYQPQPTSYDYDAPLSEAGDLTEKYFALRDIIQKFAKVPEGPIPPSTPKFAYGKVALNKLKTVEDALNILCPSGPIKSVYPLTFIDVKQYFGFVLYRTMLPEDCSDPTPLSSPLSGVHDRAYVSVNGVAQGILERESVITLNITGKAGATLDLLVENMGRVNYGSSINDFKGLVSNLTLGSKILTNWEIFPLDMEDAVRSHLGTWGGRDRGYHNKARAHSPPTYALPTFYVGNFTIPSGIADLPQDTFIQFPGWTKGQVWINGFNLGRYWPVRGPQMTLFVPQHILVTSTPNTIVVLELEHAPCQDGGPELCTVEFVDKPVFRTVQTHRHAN

[2] = target: T1, Beta-galactosidase; assay: Inhibitory activity against Beta-galactosidase in bovine liver was determined; type: tissue-based

Compound	IC50 [1]	pIC50 [2]
CCCCNC1CC(C)[C@@H](O)[C@H](O)[C@H]1O (some centres undefined)	Not Active	–
CCCCNC1=NC2CC(C)[C@@H](O)[C@H](O)[C@H]2O1 (some centres undefined)	Not Active	–
CCCCCCCCNC1CC(C)[C@@H](O)[C@H](O)[C@H]1O (some centres undefined)	–	4.43
CCNC1CC(C)[C@@H](O)[C@H](O)[C@H]1O (some centres undefined)	Not Active	–
CC1CC2N=C(NCc3ccccc3)O[C@@H]2[C@@H](O)[C@@H]1O (some centres undefined)	Not Active	–

Second part, led by results:

IC50 [1]	Compound	pIC50 [2]
Not Active	CC1CC2N=C(Nc3ccccc3)O[C@@H]2[C@@H](O)[C@@H]1O (some centres undefined)	–
Not Active	C[C@@H]1NC[C@@H](O)[C@H](O)[C@@H]1O [DEOXYFUCONOJIRIMYCIN]	–
Not Active	C[C@@H]1C[C@H](N)C(O)C(O)[C@@H]1O (single isomer, unassigned)	–
Not Active	C[C@@H]1C[C@@H](N)C(O)C(O)[C@@H]1O (single isomer, unassigned)	–
